# Test results: patent US5466671A, “Apidaecin-type peptide antibiotics with improved activities and/or different antibacterial spectrum” (priority 1994, dated 1995)
# Residues, ends and D or L forms follow the SMILES beside them.
# Assays:
# [1] = test system: M. morganii; experiment: Minimal inhibitory concentration (liquid culture); settings: inoculum 400 CFU/ml; a-b = highest concentration with growth - lowest without growth
# [2] = test system: Shigella dysenteriae; type: cell-based; settings: agar plate, cecropin P1 5 nanomoles/well (column head: 500p), 3 mm wells
# [3] = test system: Enterobacter cloacae; experiment: Inhibition zone assay (agar plate); type: cell-based; settings: agar plate, cecropin P1 5 nanomoles/well (column head: 500p), 3 mm wells
# [4] = test system: E. coli 25922; experiment: Minimal inhibitory concentration (liquid culture); settings: inoculum 1100 CFU/ml; a-b = highest concentration with growth - lowest without growth
# [5] = test system: Agrobacterium tumefaciens; experiment: Inhibition zone assay (agar plate); type: cell-based; settings: agar plate, cecropin P1 5 nanomoles/well (column head: 500p), 3 mm wells
# [6] = test system: Salmonella typhimurium; experiment: Inhibition zone assay (agar plate); type: cell-based; settings: agar plate, cecropin P1 5 nanomoles/well (column head: 500p), 3 mm wells
# [7] = test system: N. meningiditis; type: cell-based; settings: cecropin P1, 5 nanomoles/well
# [8] = test system: Y. enterocolitica; experiment: Minimal inhibitory concentration (liquid culture); settings: inoculum 5000 CFU/ml; a-b = highest concentration with growth - lowest without growth
# [9] = test system: Xanthomonas maltophilia; type: cell-based; settings: cecropin P1, 5 nanomoles/well
# [10] = test system: E. coli strain 11775Apid^R; settings: 11775Apid^R vs ATCC 11775; cited from earlier work
# [11] = test system: E. coli Apid^R; experiment: Minimal inhibitory concentration (liquid culture); type: cell-based; settings: a-b = highest concentration with growth - lowest without growth
# From the text: For details see `Experimental Procedures`.
# [12] = test system: Escherichia coli (K514); type: cell-based; settings: agar plate, cecropin P1 5 nanomoles/well (column head: 500p), 3 mm wells
# [13] = test system: Acinetobacter calcoaceticus; experiment: Inhibition zone assay (agar plate); type: cell-based; settings: agar plate, cecropin P1 5 nanomoles/well (column head: 500p), 3 mm wells
# [14] = test system: Bacteriodes melaninogenicus; type: cell-based; settings: cecropin P1, 5 nanomoles/well
# [15] = test system: Legionella pneumophila; type: cell-based
# [16] = test system: Klebsiella pneumoniae; experiment: Inhibition zone assay (agar plate); type: cell-based; settings: agar plate, cecropin P1 5 nanomoles/well (column head: 500p), 3 mm wells
# [17] = test system: bacterial strains used in this study; experiment: Minimal inhibitory concentration, inoculum effect; type: cell-based; settings: any of the bacterial strains used
# [18] = test system: Rhizobium meliloti; experiment: Inhibition zone assay (agar plate); type: cell-based; settings: cecropin P1 5 nanomoles/well (column head: 500p), 3 mm wells
# [19] = test system: Salmonella typhi; type: cell-based; settings: agar plate, cecropin P1 5 nanomoles/well (column head: 500p), 3 mm wells
# [20] = test system: E. coli 23802; experiment: Minimal inhibitory concentration (liquid culture); settings: inoculum 5000 CFU/ml; a-b = highest concentration with growth - lowest without growth
# [21] = test system: Helicobacter pylori; type: cell-based; settings: cecropin P1, 5 nanomoles/well
# [22] = test system: Proteus mirabilis; type: cell-based; settings: cecropin P1, 5 nanomoles/well
# [23] = test system: E. coli 11775; experiment: Minimal inhibitory concentration (liquid culture); settings: a-b = highest concentration with growth - lowest without growth
# [24] = test system: A. calcoaceticus; experiment: Minimal inhibitory concentration (liquid culture); settings: inoculum 16 × 10^6 CFU/ml; a-b = highest concentration with growth - lowest without growth
# [25] = test system: Yersinia enterocolitica; experiment: Inhibition zone assay (agar plate); type: cell-based; settings: cecropin P1 5 nanomoles/well (column head: 500p), 3 mm wells
# [26] = test system: Neisseria gonorrhoeae; type: cell-based; settings: cecropin P1, 5 nanomoles/well
# [27] = test system: S. typhimurium; experiment: Minimal inhibitory concentration (liquid culture); settings: inoculum 8 × 10^6 CFU/ml; a-b = highest concentration with growth - lowest without growth
# [28] = test system: Gardnerella vaginalis; type: cell-based; settings: cecropin P1, 5 nanomoles/well
# [29] = test system: Campylobacter jejuni; experiment: Inhibition zone assay (agar plate); type: cell-based; settings: cecropin P1 5 nanomoles/well (column head: 500p), 3 mm wells
# [30] = test system: Haemophilus influenzae; experiment: Inhibition zone assay (agar plate); type: cell-based; settings: cecropin P1 5 nanomoles/well (column head: 500p), 3 mm wells
# [31] = test system: Haemophilus ducreyi; type: cell-based; settings: cecropin P1, 5 nanomoles/well
smiles,measurement,setting,value
"CC[C@H](C)[C@H](NC(=O)CNC(=O)[C@H](CCC(=O)O)NC(=O)[C@H](CO)NC(=O)[C@@H](NC(=O)[C@H](CCCNC(=N)N)NC(=O)[C@H](CCCCN)NC(=O)[C@H](CCCCN)NC(=O)[C@H](C)NC(=O)[C@H](CO)NC(=O)[C@H](CC(N)=O)NC(=O)[C@H](CCC(=O)O)NC(=O)[C@H](CC(C)C)NC(=O)[C@H](CCCCN)NC(=O)[C@H](CCCCN)NC(=O)[C@H](C)NC(=O)[C@@H](NC(=O)[C@H](CCCCN)NC(=O)[C@H](CO)NC(=O)[C@H](CC(C)C)NC(=O)[C@H](Cc1c[nH]c2ccccc12)NC(=O)[C@@H](N)CO)[C@@H](C)O)[C@@H](C)CC)C(=O)N[C@@H](C)C(=O)N[C@H](C(=O)N[C@@H](C)C(=O)N[C@H](C(=O)N[C@@H](CCC(N)=O)C(=O)NCC(=O)NCC(=O)N1CCC[C@H]1C(=O)N[C@@H](CCCNC(=N)N)C(=O)O)[C@@H](C)CC)[C@@H](C)CC [CP-1, cecropin P1, reference compound] (H-SWLSKTAKKLENSAKKRISEGIAIAIQGGPR-OH)",minimal inhibitory concentration (MIC),[1],0.2 to 1 µg/mL
same,inhibition zone diameter (number of plus signs),[2],++++ ((++++) 15-19 mm)
same,inhibition zone diameter (number of plus signs),[3],++++ ((++++) 15-19 mm)
same,minimal inhibitory concentration (MIC),[4],0.2 to 1 µg/mL
same,inhibition zone diameter (number of plus signs),[5],++++ ((++++) 15-19 mm)
same,inhibition zone diameter (number of plus signs),[6],++ ((++) 7-9 mm)
same,measurable activity on agar plate,[7],not
same,minimal inhibitory concentration (MIC),[8],0.2 to 1 µg/mL
same,measurable activity on agar plate,[9],measurable activity
same,susceptibility of mutant compared to parental strain,[10],equally susceptible
same,minimal inhibitory concentration (MIC),[11]; inoculum 12 × 10^6 CFU/ml,0.2 to 1 µg/mL
same,minimal inhibitory concentration (MIC),[11]; inoculum 1000 CFU/ml,0.2 to 1 µg/mL
same,inhibition zone diameter (number of plus signs),[12],+ ((+) 5-6 mm)
same,inhibition zone diameter (number of plus signs),[13],++ ((++) 7-9 mm)
same,measurable activity on agar plate,[14],measurable activity
same,inhibition zone diameter (number of plus signs),[15],+++++ (key: (+) 5-6 mm; (++) 7-9 mm; (+++) 10-14 mm; (++++) 15-19 mm; (+++++) 20 or more min; (-) denotes that no inhibition was observed)
same,inhibition zone diameter (number of plus signs),[16],+ ((+) 5-6 mm)
same,inoculum effect,[17],No inoculum effect
same,inhibition zone diameter (number of plus signs),[18],+ ((+) 5-6 mm)
same,inhibition zone diameter (number of plus signs),[19],+++++ ((+++++) 20 or more min)
same,minimal inhibitory concentration (MIC),[20],0.2 to 1 µg/mL
same,measurable activity on agar plate,[21],not
same,measurable activity on agar plate,[22],not
same,minimal inhibitory concentration (MIC),[23]; inoculum 16 × 10^6 CFU/ml,0.2 to 1 µg/mL
same,minimal inhibitory concentration (MIC),[23]; inoculum 1200 CFU/ml,0.2 to 1 µg/mL
same,minimal inhibitory concentration (MIC),[24],2 to 10 µg/mL
same,inhibition zone diameter (number of plus signs),[25],+++++ ((+++++) 20 or more min)
same,measurable activity on agar plate,[26],not
same,minimal inhibitory concentration (MIC),[27],1 to 2 µg/mL
same,measurable activity on agar plate,[28],not
same,inhibition zone diameter (number of plus signs),[29],+++ ((+++) 10-14 mm)
same,inhibition zone diameter (number of plus signs),[30],++++ ((++++) 15-19 mm)
same,measurable activity on agar plate,[31],measurable activity
